The record followed here is article PMC5562448 (Chembiochem : a European journal of chemical biology, 2017).

The target of assay [1] is HSPA1A (Homo sapiens, UniProt P0DMV8). In words: isothermal titration calorimetry. It is filed as binding. Conditions: n=0.9. In general terms: ITC needs no label: the signal is the heat of the interaction.
Assay [2] concerns the target HSPA8 (Homo sapiens, UniProt P11142). In words: isothermal titration calorimetry. It is filed as binding. Conditions: n=1.1.

HSPA8, sequence (P11142 2-646): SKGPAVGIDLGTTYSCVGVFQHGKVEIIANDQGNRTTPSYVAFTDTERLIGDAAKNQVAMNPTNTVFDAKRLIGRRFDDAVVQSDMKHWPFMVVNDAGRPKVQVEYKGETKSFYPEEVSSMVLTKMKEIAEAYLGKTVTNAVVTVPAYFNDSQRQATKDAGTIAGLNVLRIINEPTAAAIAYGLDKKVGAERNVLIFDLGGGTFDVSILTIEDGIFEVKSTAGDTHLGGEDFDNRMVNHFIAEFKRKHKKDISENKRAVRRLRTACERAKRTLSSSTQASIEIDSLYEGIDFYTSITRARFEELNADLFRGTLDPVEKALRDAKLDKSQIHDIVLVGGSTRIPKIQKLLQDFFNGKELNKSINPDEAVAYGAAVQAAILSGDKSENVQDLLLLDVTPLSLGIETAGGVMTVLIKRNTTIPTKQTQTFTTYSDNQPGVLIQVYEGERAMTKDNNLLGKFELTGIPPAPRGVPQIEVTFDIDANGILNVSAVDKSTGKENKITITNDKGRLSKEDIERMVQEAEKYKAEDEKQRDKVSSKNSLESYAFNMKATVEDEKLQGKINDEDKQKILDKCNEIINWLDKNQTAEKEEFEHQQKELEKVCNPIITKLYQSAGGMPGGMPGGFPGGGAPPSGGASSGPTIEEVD
HSPA1A, sequence (P0DMV8 2-641): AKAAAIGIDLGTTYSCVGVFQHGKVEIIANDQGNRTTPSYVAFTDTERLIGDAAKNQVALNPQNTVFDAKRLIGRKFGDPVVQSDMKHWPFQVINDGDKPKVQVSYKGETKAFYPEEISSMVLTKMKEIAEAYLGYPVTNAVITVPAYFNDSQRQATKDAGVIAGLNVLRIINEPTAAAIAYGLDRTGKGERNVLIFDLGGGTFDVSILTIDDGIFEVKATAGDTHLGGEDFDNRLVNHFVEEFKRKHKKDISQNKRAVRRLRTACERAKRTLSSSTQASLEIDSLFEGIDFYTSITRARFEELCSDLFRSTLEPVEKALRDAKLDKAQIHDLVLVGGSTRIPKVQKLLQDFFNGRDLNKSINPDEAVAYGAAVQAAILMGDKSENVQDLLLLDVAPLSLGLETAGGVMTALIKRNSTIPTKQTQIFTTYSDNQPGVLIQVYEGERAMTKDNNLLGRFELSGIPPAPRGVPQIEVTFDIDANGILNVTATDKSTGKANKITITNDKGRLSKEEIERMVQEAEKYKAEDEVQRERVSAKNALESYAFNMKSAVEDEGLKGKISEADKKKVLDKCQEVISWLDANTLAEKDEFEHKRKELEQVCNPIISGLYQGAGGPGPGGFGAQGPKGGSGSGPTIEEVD

Broadly, the Kd is the constant that tells how readily two partners part at equilibrium. Read a low Kd as higher affinity. As to `C[C@@H]1[C@]2(O[C@H]3C=C4[C@@H]5CC[C@H]6Cc7nc8c(nc7C[C@]6(C)[C@H]5C[C@@H](O)[C@]4(C)[C@]31O)C[C@@H]1CC[C@H]3C4=C[C@@H]5O[C@]6(CCC(C)(C)O6)[C@@H](C)[C@@H]5[C@@]4(C)[C@H](O)C[C@@H]3[C@@]1(C)C8)O[C@](C)(CO)C[C@H]2O` [compound 3, ritterostatin GN1N], the Kd in assay [1] came out at 625 nM; in assay [2], 1630 nM.
